Results taken from the supplement of paper PMC11451515.

Tested on: P12-Ichikawa
Assay: cell viability relative to DMSO control; higher = less cytotoxic
Settings: 48 h
Procedure, shortened: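 NOMO1, SEM and P12-Ichikawa leukemia cells spent at least four passages adapting to each medium before use. They were seeded at 500 cells/well (NOMO1, SEM) or 1000 cells/well (P12-Ichikawa) in 5 μl in 1536-well plates and pin-dosed with library compounds in DMSO at 11 threefold steps from 47 μM down to 0.79 nM. After 48 h at 37°C, CellTiter-Glo One luminescence was read. Viability is reported as a percentage of the DMSO wells on each plate, with cell-free wells as background.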

[1] = HPLM + 10% dialyzed FBS, 0.000781 µM
[2] = HPLM + 10% dialyzed FBS, 0.00234 µM
[3] = HPLM + 10% dialyzed FBS, 0.00702 µM
[4] = HPLM + 10% dialyzed FBS, 0.0211 µM
[5] = HPLM + 10% dialyzed FBS, 0.0632 µM
[6] = HPLM + 10% dialyzed FBS, 0.19 µM
[7] = HPLM + 10% dialyzed FBS, 0.569 µM
[8] = HPLM + 10% dialyzed FBS, 1.71 µM
[9] = HPLM + 10% dialyzed FBS, 5.12 µM
[10] = HPLM + 10% dialyzed FBS, 15.4 µM
[11] = HPLM + 10% dialyzed FBS, 46.1 µM
[12] = RPMI 5 mM glucose + 10% FBS, 0.000781 µM
[13] = RPMI 5 mM glucose + 10% FBS, 0.00234 µM
[14] = RPMI 5 mM glucose + 10% FBS, 0.00702 µM
[15] = RPMI 5 mM glucose + 10% FBS, 0.0211 µM
[16] = RPMI 5 mM glucose + 10% FBS, 0.0632 µM
[17] = RPMI 5 mM glucose + 10% FBS, 0.19 µM
[18] = RPMI 5 mM glucose + 10% FBS, 0.569 µM
[19] = RPMI 5 mM glucose + 10% FBS, 1.71 µM
[20] = RPMI 5 mM glucose + 10% FBS, 5.12 µM
[21] = RPMI 5 mM glucose + 10% FBS, 15.4 µM
[22] = RPMI 5 mM glucose + 10% FBS, 46.1 µM
[23] = RPMI 5 mM glucose + 10% dialyzed FBS, 0.000781 µM
[24] = RPMI 5 mM glucose + 10% dialyzed FBS, 0.00234 µM
[25] = RPMI 5 mM glucose + 10% dialyzed FBS, 0.00702 µM
[26] = RPMI 5 mM glucose + 10% dialyzed FBS, 0.0211 µM
[27] = RPMI 5 mM glucose + 10% dialyzed FBS, 0.0632 µM
[28] = RPMI 5 mM glucose + 10% dialyzed FBS, 0.19 µM
[29] = RPMI 5 mM glucose + 10% dialyzed FBS, 0.569 µM
[30] = RPMI 5 mM glucose + 10% dialyzed FBS, 1.71 µM
[31] = RPMI 5 mM glucose + 10% dialyzed FBS, 5.12 µM
[32] = RPMI 5 mM glucose + 10% dialyzed FBS, 15.4 µM
[33] = RPMI 5 mM glucose + 10% dialyzed FBS, 46.1 µM

SMILES | cell viability [1] [%] | cell viability [2] [%] | cell viability [3] [%] | cell viability [4] [%] | cell viability [5] [%] | cell viability [6] [%] | cell viability [7] [%] | cell viability [8] [%] | cell viability [9] [%] | cell viability [10] [%] | cell viability [11] [%] | cell viability [12] [%] | cell viability [13] [%] | cell viability [14] [%] | cell viability [15] [%] | cell viability [16] [%] | cell viability [17] [%] | cell viability [18] [%] | cell viability [19] [%] | cell viability [20] [%] | cell viability [21] [%] | cell viability [22] [%] | cell viability [23] [%] | cell viability [24] [%] | cell viability [25] [%] | cell viability [26] [%] | cell viability [27] [%] | cell viability [28] [%] | cell viability [29] [%] | cell viability [30] [%] | cell viability [31] [%] | cell viability [32] [%] | cell viability [33] [%]
CN(C)C1=CC=C(C=C1)C(C2=CC=C(C=C2)N(C)C)=C/3\C=C/C(/C=C3)=[N+](C)C | 114 | 107 | 122 | 116 | 115 | 74.1 | 18.5 | 1.52 | 1.65 | 1.9 | 0.24 | 107 | 103 | 102 | 111 | 94.9 | 24.6 | 14.9 | 3.64 | 6.36 | 4.49 | 0.553 | 110 | 104 | 115 | 106 | 94.1 | 34.3 | 19.2 | 10.9 | 12.8 | 3.78 | 0.17
CN1C[C@H]2c3ccccc3Oc3ccc(Cl)cc3[C@@H]2C1 | 88.5 | 86.3 | 83.8 | 90.2 | 89.7 | 96.8 | 92.5 | 96 | 91.4 | 93 | 95.8 | 96.9 | 94.5 | 95.6 | 97.8 | 88.4 | 95.4 | 98.2 | 99 | 96.7 | 103 | 101 | 87.6 | 89.7 | 82.3 | 87.6 | 87.5 | 96.6 | 87 | 84.5 | 80 | 84.3 | 78.1
Cc1ccc([S+](=O)([O-])N[C@@H](Cc2ccccc2)C(=O)CCl)cc1 | 95 | 106 | 101 | 101 | 105 | 107 | 105 | 106 | 104 | 94.4 | 46.4 | 90.8 | 92.4 | 95.7 | 104 | 113 | 107 | 88.7 | 105 | 109 | 96.2 | 36 | 93.9 | 92.6 | 97.2 | 102 | 95.1 | 91.3 | 93.2 | 94.7 | 106 | 105 | 36.9
CCOC(=O)C/1=C(O)/C(=O)N(CC2=CC=CC=C2)C1 | 114 | 114 | 114 | 112 | 111 | 113 | 109 | 109 | 99.1 | 99.8 | 100 | 116 | 121 | 115 | 119 | 128 | 120 | 106 | 122 | 114 | 106 | 99.5 | 107 | 109 | 123 | 111 | 113 | 111 | 120 | 106 | 114 | 107 | 99.2
CCC[C@H]1C[C@H](C(=O)N[C@@H]([C@@H]2O[C@@H](SC)[C@@H](O)[C@@H](O)[C@H]2O)[C@H](C)Cl)N(C)C1 | 103 | 117 | 115 | 120 | 119 | 124 | 123 | 124 | 125 | 118 | 127 | 105 | 113 | 112 | 121 | 132 | 131 | 137 | 119 | 130 | 130 | 134 | 113 | 122 | 115 | 115 | 128 | 124 | 126 | 119 | 130 | 122 | 121
COCCCN1CCC(NC(=O)c2cc(Cl)c(N)c3c2OCC3)CC1 | 114 | 124 | 127 | 132 | 132 | 134 | 134 | 133 | 146 | 132 | 124 | – | – | – | – | – | – | – | – | – | – | – | – | – | – | – | – | – | – | – | – | – | –
C[C@]1(c2nc3c(C(N)=O)cccc3[nH]2)CCCN1 | 78.7 | 83.9 | 79.3 | 88.8 | 82.2 | 87.2 | 88.4 | 83.2 | 81.3 | 89.5 | 72.4 | 70.9 | 78.2 | 74.9 | 82.6 | 82.9 | 72.9 | 77.7 | 72.4 | 83.3 | 80.4 | 5.38 | 78.1 | 74.3 | 74.3 | 81.4 | 83.5 | 76.9 | 79 | 81.6 | 72.8 | 82.1 | 2.96
